Source: the METLIN SMRT retention time set (Domingo-Almenara et al. 2019)

Experiment: gradient 5% acetonitrile 3 min, to 50% in 2 min, to 85% in 15 min, held 3 min, 100 µL/min
Conditions: column: Zorbax Extend-C18 2.1 x 50 mm; eluents: water / acetonitrile, 0.1% formic acid
Procedure, shortened: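 Data were gathered over 3 months by HPLC coupled to a quadrupole time-of-flight mass spectrometer, operated in positive and negative ionization mode. Mixtures of ~100 pure standards ran on a Zorbax Extend-C18 column (2.1 × 50 mm, 1.8 μm) at 100 μL/min, with water and acetonitrile each containing 0.1% formic acid and dead and dwell volumes of 40 μL and 900 μL. Retention time was read from adduct peaks picked by computer and checked manually.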

Row | Structure (SMILES) | RP-LC retention time
1 | O=C(Nc1cnc(-c2cccc(Cl)c2)nc1)c1ccc(Br)o1 | 1140 s
2 | CC(C)(C)c1ccc(CN2CCC(OC3CCN(C4CCCC4)C3=O)CC2)cc1 (stereo unspecified) | 758 s
3 | CCCNc1cc(N2CCC(CCC(=O)Nc3ccccc3)CC2)ncn1 | 704 s
4 | CC(C)NC(=O)c1ccc(OCC2CCN(C(=O)C3CCCO3)CC2)cc1 (stereo unspecified) | 697 s
5 | Cc1nc2cc(-c3noc(COc4ccc(F)cc4)n3)ccc2o1 | 994 s
6 | CC(=O)Nc1ccc(N2CCN(C3CCCCC3)CC2)cc1C(=O)O | 588 s
7 | O=C(NC1CCCC1)c1c2c(nc3ccc(F)cc13)CCC2 | 750 s
8 | COc1ccccc1-c1nc(Cn2nnc(-c3nc(-c4ccc(Cl)cc4)no3)c2C)c(C)o1 | 1220 s
9 | CCCN1C(=O)Cc2c(C)nc(-c3cccc(F)c3)nc21 | 1090 s
10 | CCN(CC)C(=O)c1c2c(cn(-c3ccc(F)cc3)c1=O)C(=O)CC(C)(C)C2 | 759 s
11 | COc1ccc2[nH]c3c(c2c1)CCNC31CCN(S(=O)(=O)c2c(C)nn(C)c2C)CC1 | 641 s
12 | CCc1ccc(NC(=O)C(C)Oc2cc(C(F)(F)F)c3c(C)nn(C)c3n2)cc1 (stereo unspecified) | 1030 s
13 | CC1CCC(NC(=O)C2CCCN(C(=O)c3cc(-c4cccnc4)n[nH]3)C2)CC1 (stereo unspecified) | 636 s
14 | Cc1noc(-c2cccn2Cc2cccc(Cl)c2)n1 | 1110 s
15 | COC(=O)CNC(=O)N1CCCC1c1ccc(OC)cc1 (stereo unspecified) | 678 s
16 | Cc1nc(C)c(C(=O)N2CCCC2c2nc(-c3ccc(F)cc3F)no2)s1 (stereo unspecified) | 837 s
17 | Cc1cc(Cl)ccc1S(=O)(=O)N1C[C@H](F)C[C@@H]1C(=O)N1CCOCC1 | 762 s
18 | CCn1cnc(S(=O)(=O)N2CCC(C(=O)NCc3cccs3)CC2)c1 | 658 s
19 | CCOC(=O)c1c(C)c(CCC(=O)N2CCCCCC2)n(C)c1C | 897 s
20 | Cc1noc2nc(C)n(CC(=O)Nc3ccc(F)cc3F)c(=O)c12 | 767 s
21 | O=C(NCc1csc(C2CCN(C(=O)c3ccc(F)c(F)c3)CC2)n1)C1CCC1 | 742 s
22 | CCOc1ncccc1CNC(=O)Cc1ccsc1 | 771 s
23 | COc1ccc(CCNc2nc(-c3ccc(Cl)cc3)cs2)cc1OC | 1050 s
24 | CN1CCN(CCNC(=O)C2CCc3sc(C(=O)N4CCCCCC4)cc3C2)CC1 (stereo unspecified) | 601 s

Row | Structure (SMILES) | RP-LC retention time
25 | Cn1c(=O)cnc2ccc(N3CCCC3)nc21 | 884 s
26 | COC(=O)c1c(C)[nH]c(C(=O)N2CCCC(C(=O)NC3CC3)C2)c1C (stereo unspecified) | 627 s
27 | O=C(NCCc1csc(-c2cccc(F)c2)n1)c1ccc2c(c1)OCO2 | 847 s
28 | CCc1nc(-c2cc(S(=O)(=O)NCC(=O)N3CCOCC3)c(C)s2)no1 | 753 s
29 | CC(C)c1nnc2n1CCN(C(=O)CC1CCCCC1)C2 | 699 s
30 | Cc1ccnc(N2CCCC(C(=O)NCc3ccc(F)cc3)C2)n1 (stereo unspecified) | 709 s
31 | CCCS(=O)(=O)N1CCc2ccc(NC(=O)c3ccno3)cc2C1 | 716 s
32 | Cc1cccc(CN2CCCN(c3ncccc3-c3nc(C(C)C)no3)CC2)c1 | 733 s
33 | Cc1csc(NC(=O)CN2CCC3(CC2)NC(=O)N(Cc2ccc(Cl)cc2)C3=O)n1 | 949 s
34 | CC(C)CCNC(=O)C1CCCN(c2ncnc3c2oc2ccccc23)C1 (stereo unspecified) | 786 s
35 | O=C(CC1CCCN(c2cnn(CC3CC3)c(=O)c2)C1)N1CCC2(CC1)OCCO2 (stereo unspecified) | 706 s
36 | CCNC(=O)C1CCN(C(=O)Nc2ccc(NC(=O)NCCC(C)C)cc2)CC1 | 662 s
37 | C#CCOCC1CCN(C(=O)CC2CCCCC2)CC1 | 864 s
38 | NC(=O)Cc1csc(NC(=O)c2csc(Nc3ccc(OC(F)F)cc3)n2)n1 | 688 s
39 | COc1ccc(-c2noc(NCC3CCCO3)n2)cc1 (stereo unspecified) | 765 s
40 | CC12C(=O)OC(=O)C1(C)C1CCC2O1 (stereo unspecified) | 813 s
41 | Fc1cccc(-c2nnc(Cc3nc(-c4ccc5c(c4)OCO5)no3)o2)c1 | 958 s
42 | CCOCCCNCc1ccc(-c2cccc(Cl)c2)o1 | 687 s
43 | Cc1nc([C@@H]2CN(C(=O)c3cscn3)C[C@H]2C(N)=O)n[nH]1 | 533 s
44 | Clc1ccc(-c2nc(-c3cccc(-c4ccn[nH]4)c3)no2)cc1 | 1090 s
45 | Cc1ccccc1CN1CCCN(c2ncccc2-c2nc(C(C)C)no2)CC1 | 725 s
46 | CCc1nc2cc(N3CCC(C(=O)NCc4ccccn4)CC3)cnc2nc1CC | 601 s
47 | Cc1ccc(Cl)cc1NC(=O)N1CCC(c2cc(N)on2)CC1 | 736 s
48 | O=C(c1cccnc1)N1CCCC(c2n[nH]c(C3CC3)n2)C1 (stereo unspecified) | 486 s

Next, values leading:

Row | RP-LC retention time | Structure (SMILES)
49 | 1310 s | CCCCc1ccc(NC(=O)CSc2cc(N3CCN(c4ccc(OC)cc4)CC3)ncn2)cc1
50 | 1420 s | COC(=O)c1cc2c(=O)n(-c3nc(-c4ccc(Cl)cc4)cs3)ccc2nc1C
51 | 589 s | CCn1cnc(S(=O)(=O)N2CCC(C(=O)NCCc3nc4ccc(C)cc4[nH]3)CC2)c1
52 | 1100 s | CCc1cccc(NC(=O)Cn2cnc3c(sc4nc(-c5ccccc5)ccc43)c2=O)c1
53 | 752 s | CCCCN1CCN(S(=O)(=O)c2ccccc2-c2nc(-c3ccc(F)cc3)no2)CC1
54 | 1010 s | CCc1nn2c(CNS(=O)(=O)Cc3ccccc3Cl)c(-c3ccccc3)nc2s1
55 | 1170 s | COC(=O)c1ccc2c(=O)n(-c3ccccc3)c(N3CCCCC3)nc2c1
56 | 898 s | COc1ccc(NS(=O)(=O)c2ccc3c(c2)C(=O)N(C)c2ncccc2O3)c(C)c1
57 | 1020 s | Cc1ccc(-n2cccc2CC(=O)NC2CCCCC2)cc1
58 | 589 s | O=C(Nc1cccnc1)c1ccc(Cl)c(S(=O)(=O)N2CCOCC2)c1
59 | 880 s | Cc1nn(Cc2ccc(C(=O)NC(C)C)cc2)c(C)c1S(=O)(=O)N1CCC(C)CC1
60 | 640 s | Cc1ccn2cc(-c3ccc(NC(=O)Nc4ccccc4)cc3)nc2n1
61 | 1060 s | Cc1ccc(NC(=O)Cn2nc(N3CCCC3)c3ccccc3c2=O)cc1Cl
62 | 890 s | O=C(CN1C(=O)C2CCCCN2C(=O)c2ccccc21)Nc1ccc(C(F)(F)F)cc1 (stereo unspecified)
63 | 904 s | Cc1ccc(CC(=O)NC2CCN(c3ccc(C)c(C)c3)C2=O)cc1 (stereo unspecified)
64 | 732 s | CC(=O)c1cccc(NC(=O)N2CCN(Cc3ccccc3)c3ncccc32)c1
65 | 743 s | COc1ccc(-c2cn3c(CC(=O)N4CCN(c5ccc(F)cc5)CC4)csc3n2)cc1OC
66 | 852 s | Cc1ccc(CSc2nnc3c(S(=O)(=O)N4CCCC4)cccn23)cc1
67 | 1200 s | COc1ccc2cccc(NC(=O)c3ccc(F)c(F)c3)c2n1
68 | 607 s | O=C(CCc1cc2ccccc2[nH]c1=O)NCCN1CCc2ccccc2C1
69 | 731 s | CCOc1ccc(N2CCn3c2nn(Cc2ccc(C(=O)OC)o2)c(=O)c3=O)cc1
70 | 830 s | O=C(Cn1c(=O)c2cc(-c3cccs3)nn2c2ncccc21)NCc1ccccc1

Row | RP-LC retention time | Structure (SMILES)
71 | 1170 s | CN(C)c1ccc(/C=C/C(=O)c2ccccc2)cc1Br
72 | 1130 s | COc1ccc(CN2C=C(C(=O)OCc3cc(=O)n4ccccc4n3)C(C)=NS2(=O)=O)cc1
73 | 659 s | CCOC(=O)c1csc(NC(=O)C2CCCN(c3ccc(-c4ccccc4)nn3)C2)n1 (stereo unspecified)
74 | 708 s | Cc1cc(Cl)ccc1S(=O)(=O)NC1CCc2nn(C)c(=O)n2CC1 (stereo unspecified)
75 | 1270 s | COc1ccccc1N1CCN(c2cc(SCC(=O)Nc3cccc(Cl)c3F)ncn2)CC1
76 | 995 s | Cc1ccc(C(CC(=O)N2CCN(c3ccccn3)CC2)n2cccc2)cc1 (stereo unspecified)
77 | 859 s | O=C(CN1C(=O)C(C(=O)N2CCCC2)Sc2ccccc21)N1CCN(c2ccccc2F)CC1 (stereo unspecified)
78 | 712 s | Cc1ccc(S(=O)(=O)n2ccn(C(=O)C(C)Oc3ccccc3)c2=O)cc1 (stereo unspecified)
79 | 925 s | CC(C)(C)NC(=O)Cc1cccn1-c1ccc(F)cc1
80 | 919 s | Cc1cccc(CN2CCCn3nc(C(=O)NC(C)Cc4ccco4)cc3C2=O)c1 (stereo unspecified)
81 | 723 s | Cc1cccc(NC(=O)NCC(c2cccnc2)c2cn(C)c3ccccc23)c1 (stereo unspecified)
82 | 932 s | CC(CNC(=O)c1nc(Cn2c(=O)oc3ccccc32)no1)c1ccccc1 (stereo unspecified)
83 | 911 s | CCN1CCN(c2cc(-c3nc(-c4ccc(Cl)cc4)no3)c3ccccc3n2)CC1
84 | 789 s | CCOC(=O)Cc1ccc(NC(=O)N2CCN(c3ccc(=O)n(-c4ccc(F)cc4)n3)CC2)cc1
85 | 894 s | Cc1ccc2c(c1)N(S(C)(=O)=O)CCC(C(=O)Nc1ccccc1C)O2 (stereo unspecified)
86 | 922 s | O=C(NCCc1ccccc1)N1CCCC1c1nc(-c2ccccc2)no1 (stereo unspecified)
87 | 985 s | CCc1cc(C(=O)NCc2ccc(C)cc2)nc2ccnn12
88 | 827 s | CCCC(C)NC(=O)c1ccc2c(c1)CCCN2S(C)(=O)=O (stereo unspecified)
89 | 903 s | Cc1noc(C)c1S(=O)(=O)N1CCCC(c2nnnn2-c2ccccc2)C1 (stereo unspecified)
90 | 765 s | COc1ccc(-c2nc(Cn3cnc4ccccc4c3=O)no2)cc1OC
91 | 812 s | COc1ccc(-c2nnc(COc3ccc(NC(=O)CNC(=O)Cc4ccccc4)cc3)o2)cc1
